{"source": "patent US20090155828A1", "about": "“METHODS OF DETECTING PROSTATE CANCER” (The Burnham Institute for Medical Research, priority 2001, published 2009)", "key": {"tumor cells in culture": {"test_system": "tumor cells in culture", "conditions": "cited from earlier work; for Apoptosis of tumor cells: tumor / cancer cells in culture"}, "LNCaP cells": {"test_system": "LNCaP cells", "experiment": "Androgen effects on LNCaP cell proliferation", "assay_type": "cell-based, human", "conditions": "six days", "experimental": "LNCaP cell proliferation was measured in the presence of either 0.1 nM or 100 nM DHT. Cells were plated in 24 well plates in RPMI 1640 with no phenol red and supplemented with charcoal stripped FBS and allowed to adhere overnight. The following day media was replaced, with or without DHT, and cells were grown for six days with media change every second day. Cells were counted using a hemocytometer.\nIn order to assess the effects of androgen (DHT) treatment on cell proliferation, LNCaP cells were plated in either 150 mm dishes (Falcon) or in 12 well tissue culture plates (Falcon) in complete medium. After 24 hr, the medium was replaced with RPMI containing no phenol red and supplemented with 10% charcoal stripped fetal bovine serum and the appropriate concentration of DHT. The medium was replaced every 48 hr for six days. At the indicated time points, the cells were removed by treatment with trypsin-EDTA and counted with a hemocytometer.\n(§1) It is well established that androgen (DHT) specifically, promotes proliferation of LNCaP cells in vitro. […] LNCaP cell proliferation was measured in the presence of either 0.1 nM or 100 nM DHT. […] Cells were counted using a hemocytometer. On day six, the aggregate serine hydrolase activity profiles were also measured. […] Specific labeling was assessed by comparison to a preheated control."}, "[1]": {"test_system": "fatty acid synthase (FAS)", "experiment": "Fatty acid synthase activity in DHT treated LNCaP cells, fp-PEG-Tamra profile", "assay_type": "cell-based, human", "conditions": "six days", "experimental": "(§2) Serine hydrolase activity profiles of the prostate cell lines were measured using the labeled fluorophosphonate probe fp-PEG-Tamra. Briefly, 40 μg of either the soluble or insoluble fractions were treated with 2 μM fp-PEG-Tamra for 1 hr at RT. The labeling reactions were stopped by the addition of Laemmli buffer followed by boiling for 5 min. As a control for non-specific reaction of the probe, a duplicate sample was boiled for 10 min prior to labeling with fp-PEG-Tamra. The labeled samples were resolved by 10% SDS-PAGE and visualized by scanning with a laser at 605 nm.\nas §1, with “vitro. While the direct cause for this is not completely understood, it is clear that changes in gene and protein levels are associated with proliferation. As such, it was hypothesized that androgen treatment of LNCaP cells would change the aggregate activity profile.” for “vitro.”"}, "[2]": {"test_system": "prolyl endopeptidase (PEP)", "experiment": "Prolyl endopeptidase activity in DHT treated LNCaP cells, fp-PEG-Tamra profile", "assay_type": "cell-based, human", "conditions": "six days", "experimental": "as §2\nas §1, with “vitro. While the direct cause for this is not completely understood, it is clear that changes in gene and protein levels are associated with proliferation. As such, it was hypothesized that androgen treatment of LNCaP cells would change the aggregate activity profile.” for “vitro.”"}, "PSA": {"test_system": "PSA", "experiment": "PSA activity in DHT treated LNCaP cells, fp-PEG-Tamra profile", "assay_type": "cell-based, human", "conditions": "six days", "experimental": "as §2\nas §1, with “vitro. While the direct cause for this is not completely understood, it is clear that changes in gene and protein levels are associated with proliferation. As such, it was hypothesized that androgen treatment of LNCaP cells would change the aggregate activity profile.” for “vitro.”"}, "[3]": {"test_system": "N-acyl peptide hydrolase (NAPH)", "experiment": "N-acyl peptide hydrolase activity in DHT treated LNCaP cells, fp-PEG-Tamra profile", "assay_type": "cell-based, human", "conditions": "100 nM DHT, six days", "experimental": "as §2\nas §1, with “vitro. While the direct cause for this is not completely understood, it is clear that changes in gene and protein levels are associated with proliferation. As such, it was hypothesized that androgen treatment of LNCaP cells would change the aggregate activity profile.” for “vitro.”"}, "PSA mRNA": {"test_system": "PSA mRNA", "experiment": "PSA mRNA level in DHT treated LNCaP cells by real time PCR", "assay_type": "cell-based, human", "experimental": "(§3) The serine hydrolase activity levels in the four prostate cell lines, or the change in serine hydrolase activity with DHT treatment, as assessed by fp-PEG-Tamra, was compared to the mRNA level of the cognate enzymes. Total RNA was isolated with Trizol (Life Technologies) from LNCaP, LNCaP treated with DHT, DU-145, PC-3 or PrEC cell lines. Reverse transcription was performed with Superscript II. Real time PCR was performed using the Roche SYBER Green DNA kit and a Roche LightCycler according to manufacturer instructions. Primers (20mers) were used at a final concentration of […], and 45 cycles were used."}, "PEP mRNA": {"test_system": "PEP mRNA", "experiment": "PEP mRNA level in DHT treated LNCaP cells by real time PCR", "assay_type": "cell-based, human", "conditions": "100 nM DHT", "experimental": "as §3"}, "NAPH mRNA": {"test_system": "NAPH mRNA", "experiment": "NAPH mRNA level in DHT treated LNCaP cells by real time PCR", "assay_type": "cell-based, human", "conditions": "100 nM DHT", "experimental": "as §3"}, "[4]": {"test_system": "DPP-like activity in LNCaP soluble fraction", "experiment": "Inhibition of DPP-like activity with isoleucine thiozolidide, fp-PEG-Tamra labeling, LNCaP soluble fraction", "assay_type": "biochemical, human", "conditions": "for Reaction of fp-PEG-Tamra probe with DPP-like protein (words): LNCaP lysate preincubated with IT, 97 kDa band", "experimental": "(§4) . Each lysate was pre-incubated with 100 TM IT for 20 min at RT. Residual DPP-like activity was evaluated by treatment with 2 TM fp-PEG-Tamma, as described above, followed by resolution with 10% SDS-PAGE and comparison to samples not treated with IT. Inhibition of DPP activity was quantified by measuring the fluorescence intensity of the conjugate between fp-PEG-TAMRA and the DPP. The activity of a non-DPP enzyme was used to standardize the specific effects if IT.\n(§5) One member of this family, DPP-IV, has been investigated as a target in type II diabetes. As a result of those investigations, several peptidic antagonists of DPP IV have been synthesized (Pederson et al., Diabetes 47:1253-58; 1998; Pauly et al., Metabolism 48(3):385-389, 1999). […]. The sensitivity of enzyme activity to IT was tested in the soluble fractions of the LNCaP, DU-145, and PC-3 prostate cancer cells lines. Each lysate was pre-incubated with 100 TM IT for 20 min at RT. Residual DPP-like activity was evaluated by the addition of 2 TM fp-PEG-Tamra, followed by resolution with 10% SDS-PAGE and comparison to the non-treated samples. […]. […] Specific labeling was determined by comparison to preheated controls.\nIn each of the three prostate cancer cell lines, a novel protein with homology to DPP was identified using MS/MS. The similarity to DPP was based on fold and function assignment of the corresponding cDNA and its cognate protein (Zhang et al., Prot. Sci. 8:1104-1115, 1999). […]."}, "[5]": {"test_system": "non-DPP proteins (other serine hydrolase activity)", "experiment": "Specificity of IT: fp-PEG-Tamra labeling of non-DPP serine hydrolases in prostate cancer cell lysates", "assay_type": "biochemical, human", "conditions": "soluble fractions of LNCaP, DU-145, PC-3, 100 TM IT", "experimental": "as §4, §5\nIn each of the three prostate cancer cell lines, a novel protein with homology to DPP was identified using MS/MS. […]"}, "tumor growth": {"test_system": "tumor growth", "conditions": "cited from earlier work"}, "[6]": {"conditions": "listed as isoleucine thiazolidide"}}, "note": "“Also recorded” adds a separate entry of the source."}
{"molecule": "C=C1C(=O)OC(CCCCCCCC)C1C(=O)O", "note": "(centres unmarked) [Compound C75]", "values": [{"measurement": "Cytotoxicity to cancer cells", "setting": "tumor cells in culture", "result": "cytotoxic"}, {"measurement": "Apoptosis of tumor cells", "setting": "tumor cells in culture", "result": "in some cases induce apoptosis"}]}
{"molecule": "C[C@]12CCC(=O)C[C@@H]1CC[C@@H]1[C@@H]2CC[C@]2(C)[C@@H](O)CC[C@@H]12", "note": "[DHT]", "values": [{"measurement": "LNCaP cell proliferation", "setting": "LNCaP cells; 0.1 nM DHT", "result": "promoted cell proliferation"}, {"measurement": "LNCaP cell proliferation", "setting": "LNCaP cells; 100 nM DHT", "result": "cell proliferation was inhibited"}, {"measurement": "Change of FAS activity", "setting": "[1]; 0.1 nM DHT", "result": "increased three-fold to five-fold"}, {"measurement": "Change of FAS activity", "setting": "[1]; 100 nM DHT", "result": "increased"}, {"measurement": "Change of PEP activity", "setting": "[2]; 0.1 nM DHT", "result": "decreased"}, {"measurement": "Change of PEP activity", "setting": "[2]; 100 nM DHT", "result": "dramatic drop"}, {"measurement": "Change of PSA activity", "setting": "PSA; 0.1 nM DHT", "result": "no noticeable change"}, {"measurement": "Change of PSA activity", "setting": "PSA; 100 nM DHT", "result": "increased"}, {"measurement": "Change of NAPH activity", "setting": "[3]", "result": "dramatic drop"}, {"measurement": "Change of PSA mRNA level", "setting": "PSA mRNA; 0.1 nM DHT, six days", "result": "increased over eleven-fold"}, {"measurement": "Change of PSA mRNA level", "setting": "PSA mRNA; 100 nM DHT", "result": "large increase"}, {"measurement": "Change of PEP mRNA level", "setting": "PEP mRNA", "result": "increased"}, {"measurement": "Change of NAPH mRNA level", "setting": "NAPH mRNA", "result": "slightly greater than two-fold"}]}
{"molecule": "CC[C@H](C)[C@H](N)C(=O)N1CCSC1", "note": "[IT, isoleucine thiazolidide]", "values": [{"measurement": "Reaction of fp-PEG-Tamra probe with DPP-like protein (words)", "setting": "[4]", "result": "inhibited"}, {"measurement": "Reaction of fp-PEG-Tamra probe with DPP-like protein (words)", "setting": "[4]; [6]", "result": "dramatically reduced"}, {"measurement": "DPP-like activity inhibited", "setting": "[4]; LNCaP soluble fraction, pre-incubated with 100 TM IT 20 min RT, 2 TM fp-PEG-Tamra", "result": 63, "unit": "%"}, {"measurement": "Inhibition of non-DPP proteins / other serine hydrolase activity", "setting": "[5]", "result": "No inhibition; also recorded: no other serine hydrolase activity was reduced"}, {"measurement": "Inhibition of non-DPP proteins / other serine hydrolase activity", "setting": "[5]; [6]", "result": "No other enzyme activities were inhibited"}]}
{"molecule": "C/C=C/C/C=C/CCC(=O)[C@H]1O[C@H]1C(N)=O", "note": "[cerulenin]", "values": [{"measurement": "Cytotoxicity to cancer cells", "setting": "tumor cells in culture", "result": "cytotoxic"}, {"measurement": "Apoptosis of tumor cells", "setting": "tumor cells in culture", "result": "induces apoptosis; also recorded: in some cases induce apoptosis"}, {"measurement": "Tumor growth in nude mice", "setting": "tumor growth", "result": "inhibit tumor growth"}]}
